In publication PMC9126595, “Identification of 3-(piperazinylmethyl)benzofuran derivatives as novel type II CDK2 inhibitors: design, synthesis, biological evaluation, and in silico insights” (Journal of Enzyme Inhibition and Medicinal Chemistry, 2022):
Like-named read-outs stand apart in the source and are kept apart here.

How the values were obtained:
[1] = test system: MCF-7 breast cancer cell line; assay: SRB anti-proliferative assay, MCF-7; type: cell-based, human; conditions: Homo sapiens, read-out: IC50 MCF-7
Description: (§1) The experimental details for the performed biological assays; Sulforhodamine B (SRB) cytotoxicity, CDK2 kinase, Annexin V-FITC apoptosis, and cell cycle assays[86–89] were mentioned in the Supporting Information.
(§2) 1. Anti-proliferative activity assay
(§3) The examined human pancreatic cancer (Panc-1), breast cancer (MCF-7), and lung carcinoma (A549) cell lines have been obtained from American Type Culture Collection (ATCC). The cells were maintained in Dulbecco's modified Eagle's medium (DMEM) supplemented with 10% heat inactivated fetal calf serum (GIBCO), penicillin (100 U/ml) and streptomycin (100 µg/ml) at 37 °C in humidified atmosphere containing 5% CO2. […]
(§4) a 25 cm2 flask in 5 ml of culture medium. The anti-proliferative activity of the tested 3-(piperazinylmethyl)benzofurans (9, 11, 13, 15 and 17) was measured in vitro using the Sulfo-Rhodamine-B stain (SRB) assay. Briefly, cells were plated out in 96-well microtiter plate (0.5X10^4 cells/well) and incubated for 24 h before treatment with the tested hybrids to allow cells to attach to the bottom of the well of the plate. Tested benzofurans were dissolved in DMSO at 1 mg/ml immediately before use and diluted to the appropriate volume just before addition to the cell culture. Different concentrations of tested benzofurans, and Staurosporine were added to the cells (three wells were prepared for each individual dose). Cells were incubated with the hybrids for 48 […]
(§5) After 48 h cells were fixed, washed, and stained for 30 min with 0.4% (w/v) SRB dissolved in 1% acetic acid. Unbound dye was removed by four washes with 1% acetic acid, and attached stain was recovered with Tris-EDTA buffer. Color intensity was measured in an ELISA reader. The relation between percent of surviving fraction and log drug concentration is plotted to get the survival curve for each cell line. […]

[2] = test system: A-549 lung carcinoma cell line; assay: SRB anti-proliferative assay, A-549; type: cell-based, human; conditions: Homo sapiens, read-out: IC50 A-549
Description: as §1, §2, §3, §4, §5

[3] = test system: Panc-1 pancreatic cancer cell line; assay: SRB anti-proliferative assay, Panc-1; type: cell-based, human; conditions: Homo sapiens, read-out: IC50 Panc-1
Description: as §1, §2, §3, §4, §5

[4] = test system: non-tumorigenic human lung fibroblast MRC-5 cell line; assay: Normal cell cytotoxicity, MRC-5; type: cell-based
Method: To test the safety of the newly synthesised compounds and their selectivity towards cancer cells, their cytotoxic activity was tested on non-tumorigenic human lung fibroblast MRC-5 cell line.

Panc-1 cells [5] = assay: Cell cycle analysis (PI flow cytometry); type: cell-based, human; conditions: Panc-1, IC50 dose, 24 h
Method: as §3
a 25 cm2 flask in 5 ml of culture medium. […]
The concentration required for […]
concentration), and then cells were washed twice with ice-cold phosphate buffered saline (PBS).
Subsequently, the treated cells were collected by centrifugation, fixed in ice-cold 70% (v/v) ethanol, washed with PBS, re-suspended with 100 μg/mL RNase, stained with 40 μg/mL PI, and analyzed by flow cytometry using FACS Calibur (Becton Dickinson, BD, Franklin Lakes, NJ, USA). The cell cycle distributions were calculated using CellQuest software 5.1 (Becton

Panc-1 cells [6] = assay: Annexin V-FITC/PI apoptosis assay; type: cell-based, human; conditions: Panc-1, IC50 concentration
Method: Anx V flowcytometry assay is featured as a helpful tool to determine whether cells death is due to the physiological apoptosis or to the non-specific necrosis.
3. Annexin V-FITC Apoptosis Assay
Phosphatidylserine externalization was assayed using Annexin V-FITC/PI apoptosis detection kit (BD Biosciences, USA) according to the manufacturer’s instructions. Pancreatic cancer Panc-1 […]
concentration. Briefly, cells were then harvested via trypsinization, and rinsed twice in PBS followed by binding buffer. Moreover, cells were re-suspended in 100 μL of binding buffer with the addition of 1 μL of FITC-Annexin V followed by an incubation period of 30 min at 4 °C. Cells were then rinsed in binding buffer and resuspended in 150 μL of binding buffer with the addition

CDK2 = molecular target: T1, CDK2 (Homo sapiens, UniProt P24941); assay: CDK2 kinase inhibitory assay (Promega CDK2 Kinase Enzyme System); type: biochemical; conditions: mean ± SD of three separate experiments
T1 construct: purchased Promega V2971
Description: The experimental details for the performed biological assays; Sulforhodamine B (SRB) cytotoxicity, CDK2 kinase, Annexin V-FITC apoptosis, and cell cycle assays[86–89] were mentioned in the Supporting Information. […]
4. CDK Kinase Inhibitory Activity
CDK2 Kinase Enzyme System (catalog No. V2971) (Promega, Milan, Italy), according to the
manufacturer’s instructions. […]

[7] = MCF7, SRB, 48 h, mean of 3 separate experiments
[8] = A549, SRB, 48 h, mean of 3 separate experiments
[9] = PANC-1, SRB, 48 h, mean of 3 separate experiments
[10] = MRC5, normal lung fibroblasts, mean of three separate experiments, read-out: IC50 MRC-5

| Structure (SMILES) | IC50 ([1]; MCF7, 48 h) | IC50 ([2]; A549, 48 h) | IC50 ([3]; PANC-1, 48 h) | IC50 ([4]; MRC5, read-out: IC50 MRC-5) | IC50 [1, 7] | IC50 [2, 8] | IC50 [3, 9] | IC50 (CDK2) | IC50 [4, 10] | further results |
| --- | --- | --- | --- | --- | --- | --- | --- | --- | --- | --- |
| O=C(NNC(=O)c1oc2ccccc2c1CN1CCN(c2ccccc2)CC1)Nc1ccccc1 [Compound 11a] | 55.9 ± 3.18 µM | 49.3 ± 3.27 µM | 56.8 ± 2.94 µM | 178 ± 13 µM | – | – | – | – | – | – |
| COc1cccc(NC(=O)NNC(=O)c2oc3ccccc3c2CN2CCN(c3ccccc3)CC2)c1 [Compound 11b] | 15.2 ± 1.34 µM | 13.8 ± 1.04 µM | 10.2 ± 0.86 µM | 121 ± 10 µM | – | – | – | – | – | – |
| COc1ccc(NC(=O)NNC(=O)c2oc3ccccc3c2CN2CCN(c3ccccc3)CC2)cc1 [Compound 11c] | 76.9 ± 5.21 µM | 57 ± 2.33 µM | 61.5 ± 4.52 µM | 246 ± 13 µM | – | – | – | – | – | – |
| O=C(NNC(=O)c1oc2ccccc2c1CN1CCN(c2ccccc2)CC1)Nc1ccc(Cl)c(C(F)(F)F)c1 [Compound 11d] | 5.57 ± 0.47 µM | 2.99 ± 0.21 µM | 2.22 ± 0.13 µM | 74 ± 5 µM | – | – | – | – | – | proportion of cells in sub-G1 phase (Panc-1 cells [5]; control 2.36%): 23.04%; proportion of cells in G2/M phase (Panc-1 cells [5]; control 12.17%): 27.52%; cells population in S phase (Panc-1 cells [5]; control 41.90%): 22.61%; cells population in G0/G1 phase (Panc-1 cells [5]; control 43.57%): 26.83%; total apoptotic cells percentage (Panc-1 cells [6]; control 2.41%): 29.93%; early apoptotic phase percentage (Panc-1 cells [6]; lower right quadrant, control 0.59%): 2.64%; late apoptotic phase percentage (Panc-1 cells [6]; upper right quadrant, control 0.32%): 15.87% |
| COc1ccc(NC(=O)NNC(=O)c2oc3ccccc3c2CN2CCN(c3ccccc3)CC2)cn1 [Compound 11e] | 48.7 ± 3.54 µM | – | 54.6 ± 4.22 µM | 244 ± 18 µM | – | – | – | – | – | – |
| O=C(NN=Cc1ccccc1)c1oc2ccccc2c1CN1CCN(c2ccccc2)CC1 [Compound 13a] | – | – | – | – | 118 ± 8.39 µM | 109 ± 7.59 µM | 169 ± 9.41 µM | 152 ± 7.7 nM | > 500 µM | – |
| COc1cccc(C=NNC(=O)c2oc3ccccc3c2CN2CCN(c3ccccc3)CC2)c1 [Compound 13b] | – | – | – | – | 2.98 ± 0.18 µM | 1.71 ± 0.1 µM | 1.04 ± 0.08 µM | 65.6 ± 3.31 nM | 18.1 ± 1.3 µM | melting point: 176 to 178 °C |
| COc1ccc(C=NNC(=O)c2oc3ccccc3c2CN2CCN(c3ccccc3)CC2)cc1 [Compound 13c] | – | – | – | – | 13.6 ± 0.94 µM | 14.4 ± 1.02 µM | 4.47 ± 0.29 µM | 52.6 ± 2.7 nM | 121 ± 9 µM | melting point: 181 to 182 °C |
| CC(=NNC(=O)c1oc2ccccc2c1CN1CCN(c2ccccc2)CC1)c1ccccc1 [Compound 15a] | – | – | – | – | 123 ± 6.82 µM | 98.4 ± 5.61 µM | 120 ± 5.77 µM | 333 ± 17 nM | 452 ± 28 µM | melting point: 191 to 193 °C |
| COc1ccc(C(C)=NNC(=O)c2oc3ccccc3c2CN2CCN(c3ccccc3)CC2)cc1 [Compound 15b] | – | – | – | – | 44.4 ± 2.96 µM | 28.5 ± 1.92 µM | 25.4 ± 1.7 µM | 127 ± 6.5 nM | 160 ± 10 µM | – |
| O=C(NN=C1CCCc2ccccc21)c1oc2ccccc2c1CN1CCN(c2ccccc2)CC1 [Compound 17] | – | – | – | – | 82.8 ± 5.43 µM | 58.9 ± 1.88 µM | 80.4 ± 4.83 µM | 65.6 ± 3.3 nM | 284 ± 15 µM | – |
